Patent US5773646A, “Meta-substituted phenylene derivatives” (G. D. Searle & Co., priority 1997, dated 1998)
Counter-ions that a name gives are not always drawn. Like-named read-outs stand apart in the source and are kept apart here.

Legend:
[1] = biological target: T1, Human vitronectin receptor (αv β3) (Homo sapiens, UniProt P05106+P06756); assay: Vitronectin adhesion assay (solid phase receptor assay, biotinylated vitronectin competition); type: binding
T1 construct: Human vitronectin receptor(αv β3) was purified from human placenta; from tissue; host or cells: human placenta
Description: VITRONECTIN ADHESION ASSAY Human vitronectin receptor(αv β3) was purified from human placenta as previously described [Pytela et al., Methods in Enzymology, 144:475-489 (1987)). Human vitronectin was purified from fresh frozen plasma as previously described [Yatohgo et al., Cell Structure and Function, 13:281-292 (1988)]. Biotinylated human vitronectin was prepared by coupling NHS-biotin from Pierce Chemical Company (Rockford, Ill.) to purified vitronectin as previously described [Charo et al., J. Biol. Chem., 266(3):1415-1421 (1991)]. Assay buffer, OPD substrate tablets, and RIA grade BSA were obtained from Sigma (St. Louis, Mo.). Anti-biotin antibody was obtained from Calbiochem (La Jolla, Calif.). Linbro microtiter plates were obtained from Flow Labs (McLean, Va.). ADP reagent was obtained from Sigma (St. Louis, Mo.). Solid Phase Receptor Assays This assay was essentially the same as previously reported [Niiya et al., Blood, 70:475-483 (1987)]. The purified human vitronectin receptor (αv β3) was diluted from stock solutions to 1.0 μg/mL in Tris-buffered saline containing 1.0 mM Ca^++, Mg^++, and Mn^++, pH 7.4 (TBS^+++). The diluted receptor was immediately transferred to Linbro microtiter plates at 100 μL/well (100 ng receptor/well). The plates were sealed and incubated overnight at 4° C. to allow the receptor to bind to the wells. All remaining steps were at room temperature. The assay plates were emptied and 200 μL of 1% RIA grade BSA in TBS^+++ (TBS^+++ /BSA) were added to block exposed plastic surfaces. Following a 2 hour incubation, the assay plates were washed with TBS^+++ using a 96 well plate washer. Logarithmic serial dilution of the test compound and controls were made starting at a stock concentration of 2 mM and using 2 nM biotinylated vitronectin in TBS^+++ /BSA as the diluent. This premixing of labeled ligand with test (or control) ligand, and subsequent transfer of 50 μL aliquots to the assay plate was carried out with a CETUS Propette robot; the final concentration of the labeled ligand was 1 nM and the highest concentration of test compound was 1.0×10^-4 M. The competition occurred for two hours after which all wells were washed with a plate washer as before. Affinity purified horseradish peroxidase labeled goat antibiotin antibody was diluted 1:3000 in TBS^+++ /BSA and 125 μL were added to each well. After 30 minutes, the plates were washed and incubated with OPD/H2 O2 substrate in 100 mM/L Citrate buffer, pH 5.0. The plate was read with a microtiter plate reader at a wavelength of 450 nm and when the maximum-binding control wells reached an absorbance of about 1.0, the final A450 were recorded for analysis. The data were analyzed using a macro written for use with the EXCEL™ spreadsheet program. The mean, standard deviation, and %CV were determined for duplicate concentrations. The mean A450 values were normalized to the mean of four maximum-binding controls (no competitor added)(B-MAX). The normalized values were subjected to a four parameter curve fit algorithm [Rodbard et al., Int.

[2] = biological target: T2, Human fibrinogen receptor (αIIb β3) (Homo sapiens, UniProt P05106+P08514); assay: Purified IIb/IIIa receptor assay (solid phase receptor assay, biotinylated vitronectin competition); details: inhibition of 50% of the maximum binding of biotinylated vitronectin; 1 nM labeled ligand, 2 hours, room temperature, highest concentration of test compound 1.0×10^-4 M
T2 construct: Human fibrinogen receptor (αIIb β3) was purified from outdated platelets; from tissue; host or cells: outdated human platelets
From the text: PURIFIED IIb/IIIa RECEPTOR ASSAY Human fibrinogen receptor (αIIb β3) was purified from outdated platelets. (Pytela, R., Pierschbacher, […]., Suzuki, S., and […] acid adhesion receptors", Methods in Enzymology 144(1987):475-489.) Human vitronectin was purified from fresh frozen plasma as described in Yatohgo, T., Izumi, M., Kashiwagi, H., and Hayashi, M., "Novel purification of vitronectin from human plasma by heparin affinity chromatography," Cell Structure and Function 13(1988):281-292. Biotinylated human vitronectin was prepared by coupling NHS-biotin from Pierce Chemical Company (Rockford, Ill.) to purified vitronectin as previously described. (Charo, […]., Phillips, D. R., Hsu, M. A., Scarborough, R. M., "Inhibition of fibrinogen binding to GP IIb/IIIa by a GP IIIa peptide", J. Biol. Chem. 266(3)(1991):1415-1421.) Assay buffer, OPD substrate tablets, and RIA grade BSA were obtained from Sigma (St. Louis, Mo.). Anti-biotin antibody was obtained from Calbiochem (La Jolla, Calif.). Linbro microtiter plates were obtained from Flow Labs (McLean, Va.). ADP reagent was obtained from Sigma (St. Louis, Mo.). Solid Phase Receptor Assays This assay is essentially the same reported in […]., Bader, R., Byers-Ward, […]., Plow, E. F. and Ruggeri, Z. M., "Increased surface expression of the membrane glycoprotein IIb/IIIa complex induced by platelet activation: Relationships to the binding of fibrinogen and platelet aggregation", Blood 70(1987):475-483. The purified human fibrinogen receptor (αIIb β3) was diluted from stock solutions to 1.0 μg/mL in Tris-buffered saline containing 1.0 mM Ca^++, Mg^++, and Mn^++, pH 7.4 (TBS^+++). The diluted receptor was immediately transferred to Linbro microtiter plates at 100 μL/well (100 ng receptor/well). The plates were sealed and incubated overnight at 4° C. to allow the receptor to bind to the wells. All remaining steps were at room temperature. The assay plates were emptied and 200 μL of 1% RIA grade BSA in TBS^+++ (TBS^+++ /BSA) were added to block exposed plastic surfaces. Following a 2 hour incubation, the assay plates were washed with TBS^+++ using a 96 well plate washer. Logarithmic serial dilution of the test compound and controls were made starting at a stock concentration of 2 mM and using 2 nM biotinylated vitronectin in TBS^+++ /BSA as the diluent. This premixing of labeled ligand with test (or control) ligand, and subsequent transfer of 50 μL aliquots to the assay plate was carried out with a CETUS Propette robot; the final concentration of the labeled ligand was 1 nM and the highest concentration of test compound was 1.0×10^-4 M. The competition occurred for two hours after which all wells were washed with a plate washer as before. Affinity purified horseradish peroxidase labeled goat antibiotin antibody was diluted 1:3000 in TBS^+++ /BSA and 125 μL were added to each well. After 30 minutes, the plates were washed and incubated with […]/H2 O2 substrate in 100 mM/L citrate buffer, pH 5.0. The plate was read with a microtiter plate reader at a wavelength of 450 nm and when the maximum-binding control wells reached an absorbance of about 1.0, the final A450 were recorded for analysis. The data were analyzed using a macro written for use with the EXCELTM spreadsheet program. The mean, standard deviation, and %CV were determined for duplicate concentrations. The mean A450 values were normalized to the mean of four maximum-binding controls (no competitor added)(B-MAX). The normalized values were subjected to a four parameter curve fit algorithm, [Robard et al., Int.

[3] = inhibition of 50% of the maximum binding of biotinylated vitronectin, 1 nM labeled ligand, 2 hours, room temperature, highest concentration of test compound 1.0×10^-4 M, read-out: AvB3 IC50

Compound	IC50 [1, 3] [nM]	IC50 [2] [µM]	IC50 ([1]; positive control included on each plate, range given in text, read-out: αv β3 antagonist IC50 (positive control)) [nM]
3-[[[[3-[(aminothioxomethyl)amino]phenyl]carbonyl]amino]methyl]benzenepropanoic acid [Example 25]	7460	26.9	
CCC(CC(=O)O)c1cccc(CNC(=O)c2ccc(Cl)c(NC(=N)N)c2)c1 (racemic) [Example 58, (±) 3-[[[[3-[(aminoiminomethyl)amino]-4-chlorophenyl]carbonyl]amino]methyl]-β-ethylbenzenepropanoic acid, trifluoroacetate salt]	11.6	5.18	
CCC(CC(=O)O)c1cccc(CNC(=O)c2cc(NC(=N)N)cc(C(F)(F)F)c2)c1 (racemic) [Example 59, (±) 3-[[[[3-[(aminoiminomethyl)amino]-5(trifluoromethyl)phenyl]carbonyl]amino]methyl]-β-ethylbenzenepropanoic acid, trifluoroacetate salt]	3.88	3.13	
N=C(N)Nc1cccc(C(=O)NCc2cccc(C(CC(=O)O)c3cc(F)cc(F)c3)c2)c1 (racemic) [Example 60, (±) β-[3-[[[[3-[(aminoiminomethyl)amino]phenyl]carbonyl]amino]methyl]phenyl]-3,5-difluorobenzenepropanoic acid, trifluoroacetate salt]	4.58	0.286	
COc1ccccc1C(CC(=O)O)c1cccc(CNC(=O)c2cccc(NC(=N)N)c2)c1 (racemic) [Example 63, (±) -[3-[[[[3-[(aminoiminomethyl)amino]phenyl]carbonyl]amino]methyl]phenyl]-2-methoxybenzene propanoic acid, trifluoroacetate salt hydrate]	23.5	0.454	
CC(CC(=O)O)c1cccc(CNC(=O)c2cccc(NC(N)=NC(N)=O)c2)c1 (racemic) [Example 65, (±) 3[[[[3-[[amino[(aminocarbonyl)imino]methyl]amino]phenyl]carbonyl]amino]methyl]-β-methylbenzenepropanoic acid, trifluoroacetate salt]	23	4.01	
COc1ccc2[nH]c(Nc3cccc(C(=O)NCc4cccc(C(C)CC(=O)O)c4)c3)nc2c1 (racemic) [Example 70, (±) 3-[[[[3-[(5-methoxy-1H-benzimidazol-2-yl)amino]phenyl]carbonyl]amino]methyl]-β-methyl benzenepropanoic acid, trifluoroacetate salt]	1710	7.66	
N=C(N)Nc1cccc(S(=O)(=O)Nc2cccc(C(CC(=O)O)c3ccccc3)c2)c1 (stereo not drawn) [Example 1, 3-[[[3-[(aminoiminomethyl)amino]phenyl]sulfonyl]amino]-β-phenylbenzenepropanoic acid, trifluoroacetate salt]	16.7	0.625	
N=C(N)Nc1cccc(C(=O)Nc2cccc(C(CC(=O)O)c3ccccc3)c2)c1 (stereo not drawn) [Example 2, 3-[[[3-[(aminoiminomethyl)amino]phenyl]carbonyl]amino]-β-phenylbenzenepropanoic acid, trifluoroacetate salt]	499	3.76	

Next, values leading:

IC50 [1, 3] [nM]	IC50 [2] [µM]	IC50 ([1]; positive control included on each plate, range given in text, read-out: αv β3 antagonist IC50 (positive control)) [nM]	Compound
1.33	0.712		N=C(N)Nc1cc(C(=O)NCc2cccc(C(CC(=O)O)c3cc(F)cc(F)c3)c2)cc(C(F)(F)F)c1 (racemic) [Example 61, (±) β-[3-[[[[3-[(aminoiminomethyl)amino]-5-(trifluoromethyl)phenyl]carbonyl]amino]methyl]phenyl]-3,5-difluorobenzenepropanoic acid, trifluoroacetate salt hydrate]
0.87	1.9		O=C(O)CC(c1cc(F)cc(F)c1)c1cccc(CNC(=O)c2cccc(NC3=NCCCN3)c2)c1 (racemic) [Example 62, (±) 3,5-difluoro-β-[3-[[[[3-[(1,4,5,6-tetrahydropyrimidin-2-yl)amino]phenyl]carbonyl]amino]methyl]phenyl]benzenepropanoic acid, trifluoroacetate salt monohydrate]
199	26.4		CC(CC(=O)O)c1cccc(CNC(=O)c2cccc(NC(N)=NC#N)c2)c1 (racemic) [Example 64, (±) 3[[[[3-[[amino(cyanoimino)methyl]amino]phenyl]carbonyl]amino]methyl]-β-methylbenzenepropanoic acid]
122	12.9		CC(CC(=O)O)c1cccc(CNC(=O)c2cccc(NC3=NC(=O)CN3)c2)c1 (racemic) [Example 67, (±) 3-[[[[3-[(4,5-dihydro-4-oxo-1H-imidazol-2-yl)amino]phenyl]carbonyl]amino]methyl]-β-methylbenzenepropanoic acid]
425	10.1		CC(CC(=O)O)c1cccc(CNC(=O)c2cccc(Nc3nc4ccccc4[nH]3)c2)c1 (racemic) [Example 69, (±) 3-[[[[3-[(1H-benzimidazol-2-yl)amino]phenyl]carbonyl]amino]methyl]-β-methyl benzenepropanoic acid]
		3 to 10	N=C(N)NCCCCC(=O)NCC(=O)NC(CC(=O)O)c1cccnc1 (stereo not drawn) [β-[[2-[[5-[(aminoiminomethyl)amino]-1-oxopentyl]amino]-1-oxoethyl]amino]-3-pyridinepropanoic acid]
